Converted amounts (≈) assume the structure as drawn.
Experiments:
[1] = Inhibition of Staphylococcus aureus thymidylate kinase
Staphylococcus aureus [2] = test: Antimicrobial activity against methicillin- and quinolone-sensitive Staphylococcus aureus ARC516; assay type: functional
Streptococcus pneumoniae = test: Antimicrobial activity against Streptococcus pneumoniae ARC548; assay type: functional
[3] = Inhibition of Streptococcus pneumoniae thymidylate kinase
Staphylococcus aureus [4] = test: Antimicrobial activity against methicillin- and quinolone-resistant Staphylococcus aureus ARC517; assay type: functional
[5] = Distribution co-efficient, log D of the compound; conditions: octanol/water
Haemophilus influenzae = test: Antimicrobial activity against Haemophilus influenzae ARC446; assay type: functional
Cytochrome P450 2D6 = Cytochrome P450 2D6 (Homo sapiens, UniProt P10635); test: Inhibition of CYP2D6 (unknown origin); assay type: ADME
Candida albicans = test: Antimicrobial activity against Candida albicans; assay type: functional
Streptococcus pyogenes = test: Antimicrobial activity against Streptococcus pyogenes ARC838; assay type: functional
Cytochrome P450 2C19 = Cytochrome P450 2C19 (Homo sapiens, UniProt P33261); test: Inhibition of CYP2C19 (unknown origin); assay type: ADME
[6] = test system: Staphylococcus lugdunensis; test: Antimicrobial activity against Staphylococcus lugdunensis; assay type: functional
[7] = Equilibrium solubility of the compound at pH 7.4; assay type: physicochemical; conditions: buffer
Cytochrome P450 2C9 = Cytochrome P450 2C9 (Homo sapiens, UniProt P11712); test: Inhibition of CYP2C9 (unknown origin); assay type: ADME
Plasma = test: Unbound fraction in human plasma; assay type: ADME, cell-free
[8] = test system: Staphylococcus epidermidis; test: Antimicrobial activity against Staphylococcus epidermidis ARC323; assay type: functional
[9] = Cytotoxicity against human A549 cells; assay type: cell-based; conditions: read-out: MIC
Cytochrome P450 1A2 = Cytochrome P450 1A2 (Homo sapiens, UniProt P05177); test: Inhibition of CYP1A2 (unknown origin); assay type: ADME
Thymidylate kinase = Thymidylate kinase (Homo sapiens, UniProt P23919); test: Inhibition of human thymidylate kinase
[10] = Intrinsic clearance in rat hepatocytes assessed per million cells; assay type: ADME, cell-based, Hepatocyte; conditions: read-out: CLH
[11] = test system: Staphylococcus haemolyticus; test: Antimicrobial activity against Staphylococcus haemolyticus; assay type: functional
Pseudomonas aeruginosa = test: Antimicrobial activity against Pseudomonas aeruginosa ARC545; assay type: functional
Streptococcus agalactiae = test: Antimicrobial activity against Streptococcus agalactiae; assay type: functional
[12] = biological target: Voltage-gated inwardly rectifying potassium channel KCNH2 (Homo sapiens, UniProt Q12809); test: Inhibition of human ERG
Escherichia coli = test: Antimicrobial activity against Escherichia coli ARC523; assay type: functional
Cytochrome P450 3A4 = Cytochrome P450 3A4 (Homo sapiens, UniProt P08684); test: Inhibition of CYP3A4 (unknown origin); assay type: ADME
Enterococcus faecium = test: Antimicrobial activity against linezolid-resistant Enterococcus faecium ARC1239; assay type: functional
Enterococcus faecalis = test: Antimicrobial activity against vancomycin-resistant Enterococcus faecalis ARC1618; assay type: functional
[13] = Inhibition of Escherichia coli thymidylate kinase
Klebsiella pneumoniae = test: Antimicrobial activity against Klebsiella pneumoniae ARC1865; assay type: functional
[14] = Intrinsic clearance in rat liver microsomes; assay type: ADME, Microsome; conditions: read-out: CLH
[15] = Cytotoxicity against sheep erythrocytes assessed hemolysis; assay type: cell-based, Ovis aries; conditions: erythrocyte

Chain of Voltage-gated inwardly rectifying potassium channel KCNH2 (Q12809 whole entry): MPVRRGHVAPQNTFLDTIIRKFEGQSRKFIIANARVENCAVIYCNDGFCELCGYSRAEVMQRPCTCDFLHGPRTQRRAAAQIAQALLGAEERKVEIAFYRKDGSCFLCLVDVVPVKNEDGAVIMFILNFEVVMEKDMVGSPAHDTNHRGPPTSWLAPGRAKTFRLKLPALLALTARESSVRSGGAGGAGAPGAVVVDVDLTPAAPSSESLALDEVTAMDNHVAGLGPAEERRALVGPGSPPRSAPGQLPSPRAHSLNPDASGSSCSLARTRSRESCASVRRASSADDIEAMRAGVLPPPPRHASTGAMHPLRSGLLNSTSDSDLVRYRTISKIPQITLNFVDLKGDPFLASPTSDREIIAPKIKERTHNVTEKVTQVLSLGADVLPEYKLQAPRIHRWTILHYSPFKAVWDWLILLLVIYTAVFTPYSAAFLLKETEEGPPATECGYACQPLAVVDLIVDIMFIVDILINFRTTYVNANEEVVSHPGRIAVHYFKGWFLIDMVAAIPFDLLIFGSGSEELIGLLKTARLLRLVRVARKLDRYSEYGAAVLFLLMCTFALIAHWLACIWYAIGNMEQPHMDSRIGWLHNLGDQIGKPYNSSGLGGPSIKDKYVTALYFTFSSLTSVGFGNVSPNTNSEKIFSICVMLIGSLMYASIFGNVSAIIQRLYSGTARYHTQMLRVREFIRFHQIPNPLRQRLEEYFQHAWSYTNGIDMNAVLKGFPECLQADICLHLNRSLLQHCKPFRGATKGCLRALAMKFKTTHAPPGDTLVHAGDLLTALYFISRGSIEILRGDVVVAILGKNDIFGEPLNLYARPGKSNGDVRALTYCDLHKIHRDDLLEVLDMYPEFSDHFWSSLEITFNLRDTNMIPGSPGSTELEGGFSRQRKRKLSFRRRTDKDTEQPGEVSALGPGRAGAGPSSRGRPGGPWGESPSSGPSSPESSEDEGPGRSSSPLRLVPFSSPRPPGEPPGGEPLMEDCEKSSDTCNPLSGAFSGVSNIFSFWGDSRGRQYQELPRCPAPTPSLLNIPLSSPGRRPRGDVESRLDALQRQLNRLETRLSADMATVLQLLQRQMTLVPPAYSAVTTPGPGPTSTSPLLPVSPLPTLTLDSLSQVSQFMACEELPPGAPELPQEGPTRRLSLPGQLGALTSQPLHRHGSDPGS
Chain of Cytochrome P450 2D6 (P10635 whole entry): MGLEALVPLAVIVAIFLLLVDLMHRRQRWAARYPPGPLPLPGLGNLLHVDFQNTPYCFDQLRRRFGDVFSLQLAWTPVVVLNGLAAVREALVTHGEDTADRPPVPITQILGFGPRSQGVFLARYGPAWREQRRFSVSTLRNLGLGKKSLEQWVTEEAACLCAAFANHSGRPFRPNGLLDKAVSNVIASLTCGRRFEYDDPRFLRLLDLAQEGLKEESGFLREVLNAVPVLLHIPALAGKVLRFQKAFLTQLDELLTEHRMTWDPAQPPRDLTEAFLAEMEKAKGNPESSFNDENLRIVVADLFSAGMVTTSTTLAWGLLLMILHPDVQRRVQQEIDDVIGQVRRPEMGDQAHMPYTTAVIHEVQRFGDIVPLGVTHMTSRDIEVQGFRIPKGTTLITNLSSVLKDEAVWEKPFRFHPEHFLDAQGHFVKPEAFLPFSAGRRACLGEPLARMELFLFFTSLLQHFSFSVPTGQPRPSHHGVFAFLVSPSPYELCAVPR
Chain of Cytochrome P450 1A2 (P05177 whole entry): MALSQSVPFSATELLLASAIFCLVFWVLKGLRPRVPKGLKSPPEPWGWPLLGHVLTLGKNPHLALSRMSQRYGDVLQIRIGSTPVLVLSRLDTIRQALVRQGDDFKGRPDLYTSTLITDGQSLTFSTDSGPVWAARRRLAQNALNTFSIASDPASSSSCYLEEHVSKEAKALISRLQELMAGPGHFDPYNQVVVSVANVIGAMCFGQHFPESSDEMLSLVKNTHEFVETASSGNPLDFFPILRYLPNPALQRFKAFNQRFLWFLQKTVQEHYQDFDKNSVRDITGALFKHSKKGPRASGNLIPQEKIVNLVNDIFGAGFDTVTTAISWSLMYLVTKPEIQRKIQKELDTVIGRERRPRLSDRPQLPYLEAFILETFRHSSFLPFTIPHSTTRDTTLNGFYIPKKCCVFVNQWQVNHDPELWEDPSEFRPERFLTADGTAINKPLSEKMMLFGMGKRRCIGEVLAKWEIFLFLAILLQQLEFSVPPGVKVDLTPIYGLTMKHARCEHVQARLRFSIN
Chain of Thymidylate kinase (P23919 whole entry): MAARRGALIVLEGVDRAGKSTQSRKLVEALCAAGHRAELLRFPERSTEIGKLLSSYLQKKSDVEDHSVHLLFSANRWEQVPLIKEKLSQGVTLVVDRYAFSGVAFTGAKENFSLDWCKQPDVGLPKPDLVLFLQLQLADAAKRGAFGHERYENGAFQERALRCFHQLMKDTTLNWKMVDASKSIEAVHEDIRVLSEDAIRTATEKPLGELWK
Chain of Cytochrome P450 2C9 (P11712 whole entry): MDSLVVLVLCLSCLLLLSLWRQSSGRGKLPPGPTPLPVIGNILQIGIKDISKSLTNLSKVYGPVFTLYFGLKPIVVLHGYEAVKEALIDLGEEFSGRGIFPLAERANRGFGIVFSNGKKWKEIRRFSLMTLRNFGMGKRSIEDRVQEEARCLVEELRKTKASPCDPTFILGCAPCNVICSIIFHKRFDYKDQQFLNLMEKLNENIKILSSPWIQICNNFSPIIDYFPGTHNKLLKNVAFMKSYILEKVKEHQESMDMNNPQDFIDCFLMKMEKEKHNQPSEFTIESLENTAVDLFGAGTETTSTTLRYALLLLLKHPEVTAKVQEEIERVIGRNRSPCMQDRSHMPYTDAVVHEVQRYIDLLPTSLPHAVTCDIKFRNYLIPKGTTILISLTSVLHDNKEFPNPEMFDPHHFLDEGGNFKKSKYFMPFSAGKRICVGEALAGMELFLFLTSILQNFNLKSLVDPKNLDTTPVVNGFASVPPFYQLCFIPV
Chain of Cytochrome P450 2C19 (P33261 whole entry): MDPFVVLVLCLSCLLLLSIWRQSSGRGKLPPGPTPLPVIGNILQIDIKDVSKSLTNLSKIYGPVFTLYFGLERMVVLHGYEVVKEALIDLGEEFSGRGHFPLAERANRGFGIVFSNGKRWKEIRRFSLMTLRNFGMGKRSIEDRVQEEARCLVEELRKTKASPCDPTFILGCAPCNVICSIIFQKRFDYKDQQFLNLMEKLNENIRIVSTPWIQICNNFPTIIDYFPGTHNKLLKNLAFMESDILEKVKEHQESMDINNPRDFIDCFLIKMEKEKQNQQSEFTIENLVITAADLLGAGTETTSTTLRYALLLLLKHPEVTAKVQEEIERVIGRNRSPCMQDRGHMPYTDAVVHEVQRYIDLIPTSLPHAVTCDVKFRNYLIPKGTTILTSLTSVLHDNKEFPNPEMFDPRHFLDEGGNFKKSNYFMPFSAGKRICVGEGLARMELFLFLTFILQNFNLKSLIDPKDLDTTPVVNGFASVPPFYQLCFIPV
Chain of Cytochrome P450 3A4 (P08684 whole entry): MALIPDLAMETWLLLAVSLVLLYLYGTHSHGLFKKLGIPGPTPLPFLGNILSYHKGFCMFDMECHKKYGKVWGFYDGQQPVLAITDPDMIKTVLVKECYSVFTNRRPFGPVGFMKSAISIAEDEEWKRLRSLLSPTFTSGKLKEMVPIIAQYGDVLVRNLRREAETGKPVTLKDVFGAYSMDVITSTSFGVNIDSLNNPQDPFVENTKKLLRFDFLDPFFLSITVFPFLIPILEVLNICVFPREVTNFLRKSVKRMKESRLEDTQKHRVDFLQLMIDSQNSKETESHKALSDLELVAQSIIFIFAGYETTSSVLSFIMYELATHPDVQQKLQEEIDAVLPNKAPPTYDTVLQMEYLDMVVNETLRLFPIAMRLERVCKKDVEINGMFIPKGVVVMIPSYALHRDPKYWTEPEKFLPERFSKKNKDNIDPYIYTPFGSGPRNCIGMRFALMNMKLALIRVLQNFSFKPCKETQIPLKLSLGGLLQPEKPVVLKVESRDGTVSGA

Cc1cn([C@H]2CCCN(S(=O)(=O)c3cccc(Oc4ccccc4)c3)C2)c(=O)[nH]c1=O
IC50 [1]: 81.5 µM
MIC (Staphylococcus aureus [2]): > 64 µg/mL
MIC (Streptococcus pneumoniae): > 64 µg/mL
IC50 [3]: 20.9 µM

Cc1cn([C@H]2CCCN(S(=O)(=O)c3cccc(Oc4ccc(Cl)c(Cl)c4)c3)C2)c(=O)[nH]c1=O
IC50 [1]: 2.78 µM
MIC (Staphylococcus aureus [4]): 4 µg/mL (≈ 7.84 µM)
MIC (Staphylococcus aureus [2]): 4 µg/mL (≈ 7.84 µM)
MIC (Streptococcus pneumoniae): 4 µg/mL (≈ 7.84 µM)
logD [5]: > 3.5
IC50 [3]: 0.292 µM

Cc1cn([C@H]2CCCN(S(=O)(=O)c3ccc(C(=O)O)c(Oc4ccc(Cl)c(Cl)c4)c3)C2)c(=O)[nH]c1=O
IC50 [1]: 0.023 µM
MIC (Staphylococcus aureus [4]): > 64 µg/mL
MIC (Staphylococcus aureus [2]): > 64 µg/mL
MIC (Streptococcus pneumoniae): 4 µg/mL (≈ 7.21 µM)
logD [5]: -0.9
IC50 [3]: < 0.006 µM

Cc1cccc(Oc2cc(S(=O)(=O)N3CCC[C@H](n4cc(C)c(=O)[nH]c4=O)C3)ccc2C(=O)O)c1
MIC (Staphylococcus aureus [4]): > 64 µg/mL
MIC (Staphylococcus aureus [2]): > 64 µg/mL
MIC (Streptococcus pneumoniae): 16 µg/mL (≈ 32 µM)
logD [5]: -1.6
IC50 [3]: 0.006 µM

Cc1cn([C@H]2CCCN(S(=O)(=O)c3ccc(C(=O)O)c(Oc4cccc(Cl)c4)c3)C2)c(=O)[nH]c1=O
IC50 [1]: 0.002 µM
MIC (Staphylococcus aureus [4]): > 64 µg/mL
MIC (Staphylococcus aureus [2]): > 64 µg/mL
MIC (Streptococcus pneumoniae): 2 µg/mL (≈ 3.85 µM)
logD [5]: -1.3
IC50 [3]: 0.001 µM

Cc1cn([C@H]2CCCN(S(=O)(=O)c3ccc(C(N)=O)c(Oc4cccc(Cl)c4)c3)C2)c(=O)[nH]c1=O
IC50 [1]: 0.784 µM
MIC (Staphylococcus aureus [4]): > 64 µg/mL
MIC (Staphylococcus aureus [2]): > 64 µg/mL
MIC (Streptococcus pneumoniae): 2 µg/mL (≈ 3.85 µM)
logD [5]: 2
IC50 [3]: 0.01 µM

Cc1cn([C@H]2CCCN(S(=O)(=O)c3ccc(C#N)c(Oc4cccc(Cl)c4)c3)C2)c(=O)[nH]c1=O
IC50 [1]: 0.53 µM
MIC (Staphylococcus aureus [4]): > 64 µg/mL
MIC (Staphylococcus aureus [2]): > 64 µg/mL
MIC (Streptococcus pneumoniae): 2 µg/mL (≈ 3.99 µM)
logD [5]: 1
IC50 [3]: 0.023 µM

COc1ccc(S(=O)(=O)N2CCC[C@H](n3cc(C)c(=O)[nH]c3=O)C2)cc1Oc1cccc(Cl)c1
IC50 [1]: 0.358 µM
MIC (Staphylococcus aureus [4]): 16 µg/mL (≈ 31.6 µM)
MIC (Staphylococcus aureus [2]): > 64 µg/mL
MIC (Streptococcus pneumoniae): 2 µg/mL (≈ 3.95 µM)
IC50 [3]: 0.006 µM

Cc1cn([C@H]2CCCN(S(=O)(=O)c3ccc(O)c(Oc4ccccc4)c3)C2)c(=O)[nH]c1=O
IC50 [1]: 0.255 µM
MIC (Staphylococcus aureus [4]): 16 µg/mL (≈ 35 µM)
MIC (Staphylococcus aureus [2]): 16 µg/mL (≈ 35 µM)
MIC (Streptococcus pneumoniae): 0.5 µg/mL (≈ 1.09 µM)
logD [5]: 1.5
IC50 [3]: 0.014 µM

Cc1cn([C@H]2CCCN(S(=O)(=O)c3ccc(O)c(Oc4cccc(Cl)c4)c3)C2)c(=O)[nH]c1=O
MIC (Haemophilus influenzae): > 64 µg/mL
IC50 (Cytochrome P450 2D6): > 20 µM
MIC (Candida albicans): > 64 µg/mL
MIC90 (Streptococcus pyogenes): 0.5 µg/mL (≈ 1.02 µM)
IC50 (Cytochrome P450 2C19): > 20 µM
MIC [6]: 0.016 µg/mL (≈ 0.0325 µM)
MIC (Staphylococcus aureus [4]): 0.5 µg/mL (≈ 1.02 µM)
MIC90 (Staphylococcus aureus [4]): 0.5 µg/mL (≈ 1.02 µM)
solubility thermodynamic [7]: 193 µM (≈ 94.9 µg/mL)
IC50 (Cytochrome P450 2C9): > 20 µM
Fu (Plasma): 1%
MIC [8]: 2 µg/mL (≈ 4.07 µM)
MCC [9]: > 64 µg/mL
IC50 (Cytochrome P450 1A2): > 20 µM
IC50 (Thymidylate kinase): > 200 µM
hepatocyte CLint [10]: 45 µL/min/1e6 cells
MIC [11]: 0.03 µg/mL (≈ 0.061 µM)
MIC (Pseudomonas aeruginosa): > 64 µg/mL
MIC (Streptococcus agalactiae): 0.5 µg/mL (≈ 1.02 µM)
MIC (Staphylococcus aureus [2]): 0.25 µg/mL (≈ 0.508 µM)
IC50 [12]: 27 µM
MIC (Streptococcus pneumoniae): 0.03 µg/mL (≈ 0.061 µM)
MIC90 (Streptococcus pneumoniae): 0.06 µg/mL (≈ 0.122 µM)
MIC (Escherichia coli): > 64 µg/mL
IC50 (Cytochrome P450 3A4): > 20 µM
MIC (Enterococcus faecium): 0.13 µg/mL (≈ 0.264 µM)
logD [5]: 2.1
MIC (Enterococcus faecalis): 0.5 µg/mL (≈ 1.02 µM)
IC50 [13]: 4.5 µM
MIC (Klebsiella pneumoniae): > 64 µg/mL
microsomal CLint [14]: 27 µL/min/mg
MIC [15]: > 64 µg/mL

Cc1cn([C@H]2CCCN(S(=O)(=O)c3ccc(O)c(Oc4cccc(F)c4)c3)C2)c(=O)[nH]c1=O
IC50 [1]: 0.057 µM
MIC (Staphylococcus aureus [4]): 16 µg/mL (≈ 33.6 µM)
MIC (Staphylococcus aureus [2]): 16 µg/mL (≈ 33.6 µM)
MIC (Streptococcus pneumoniae): 0.25 µg/mL (≈ 0.526 µM)
logD [5]: 1.6
IC50 [3]: 0.004 µM

Cc1cn([C@H]2CCCN(S(=O)(=O)c3ccc(O)c(Oc4ccc(Cl)cc4)c3)C2)c(=O)[nH]c1=O
IC50 [1]: 0.018 µM
MIC (Staphylococcus aureus [4]): 2 µg/mL (≈ 4.07 µM)
MIC (Staphylococcus aureus [2]): 1 µg/mL (≈ 2.03 µM)
MIC (Streptococcus pneumoniae): 0.5 µg/mL (≈ 1.02 µM)
logD [5]: 2.1
IC50 [3]: 0.008 µM

Cc1cc(Oc2cc(S(=O)(=O)N3CCC[C@H](n4cc(C)c(=O)[nH]c4=O)C3)ccc2O)ccc1Cl
IC50 [1]: 0.003 µM
MIC (Staphylococcus aureus [4]): 0.5 µg/mL (≈ 0.988 µM)
MIC (Staphylococcus aureus [2]): 1 µg/mL (≈ 1.98 µM)
MIC (Streptococcus pneumoniae): 0.25 µg/mL (≈ 0.494 µM)
logD [5]: 2.4
IC50 [3]: 0.018 µM

Cc1cn([C@H]2CCCN(S(=O)(=O)c3ccc(O)c(Oc4cccc(Br)c4)c3)C2)c(=O)[nH]c1=O
IC50 [1]: 0.002 µM
MIC (Staphylococcus aureus [4]): 0.5 µg/mL (≈ 0.932 µM)
MIC (Staphylococcus aureus [2]): 1 µg/mL (≈ 1.86 µM)
MIC (Streptococcus pneumoniae): 0.1 µg/mL (≈ 0.186 µM)
logD [5]: 2.3
IC50 [3]: 0.0007 µM

Cc1cn([C@H]2CCCN(S(=O)(=O)c3ccc(O)c(Oc4cc(F)cc(Cl)c4)c3)C2)c(=O)[nH]c1=O
IC50 [1]: 0.012 µM
MIC (Staphylococcus aureus [4]): 1 µg/mL (≈ 1.96 µM)
MIC (Staphylococcus aureus [2]): 1 µg/mL (≈ 1.96 µM)
MIC (Streptococcus pneumoniae): 0.05 µg/mL (≈ 0.0981 µM)
IC50 [3]: 0.0007 µM

Cc1cn([C@H]2CCCN(S(=O)(=O)c3ccc(O)c(Oc4cccc(C(F)(F)F)c4)c3)C2)c(=O)[nH]c1=O
IC50 [1]: 0.064 µM
MIC (Staphylococcus aureus [4]): 2 µg/mL (≈ 3.81 µM)
MIC (Staphylococcus aureus [2]): 2 µg/mL (≈ 3.81 µM)
MIC (Streptococcus pneumoniae): 0.1 µg/mL (≈ 0.19 µM)
logD [5]: 2.3
IC50 [3]: 0.003 µM

Cc1cn([C@H]2CCCN(S(=O)(=O)c3ccc(CO)c(Oc4cccc(Cl)c4)c3)C2)c(=O)[nH]c1=O
IC50 [1]: 0.61 µM
MIC (Staphylococcus aureus [4]): 64 µg/mL (≈ 126 µM)
MIC (Staphylococcus aureus [2]): 32 µg/mL (≈ 63.2 µM)
MIC (Streptococcus pneumoniae): 2 µg/mL (≈ 3.95 µM)
IC50 [3]: 0.028 µM

C[C@H]1COc2c(N3CCN(C)CC3)c(F)cc3c(=O)c(C(=O)O)cn1c23.C[C@H]1COc2c(N3CCN(C)CC3)c(F)cc3c(=O)c(C(=O)O)cn1c23.O [LEVOFLOXACIN]
MIC (Streptococcus pyogenes): 0.25 µg/mL
MIC90 (Staphylococcus aureus [4]): 16 µg/mL
